Test results published in patent US20250099434A1, “METHODS OF TREATING AMYLOID RELATED BRAIN DISORDERS USING NOVEL COMPOUNDS AND ANTIBODIES” (T3D Therapeutics, Inc., priority 2022, published 2025).
Values joined by “and” are separate entries in the source; they are usually repeats but may differ in a detail not shown here. Equal entries are not always repeated. Where two headings read alike, the source gives them in different places.

Assays:
P-glycoprotein (P-gp) = P-glycoprotein (P-gp) (Homo sapiens, UniProt P08183); experiment: P-gp substrate assessment (Caco-2, verapamil)
Chain of P-glycoprotein (P-gp) (P08183 whole entry): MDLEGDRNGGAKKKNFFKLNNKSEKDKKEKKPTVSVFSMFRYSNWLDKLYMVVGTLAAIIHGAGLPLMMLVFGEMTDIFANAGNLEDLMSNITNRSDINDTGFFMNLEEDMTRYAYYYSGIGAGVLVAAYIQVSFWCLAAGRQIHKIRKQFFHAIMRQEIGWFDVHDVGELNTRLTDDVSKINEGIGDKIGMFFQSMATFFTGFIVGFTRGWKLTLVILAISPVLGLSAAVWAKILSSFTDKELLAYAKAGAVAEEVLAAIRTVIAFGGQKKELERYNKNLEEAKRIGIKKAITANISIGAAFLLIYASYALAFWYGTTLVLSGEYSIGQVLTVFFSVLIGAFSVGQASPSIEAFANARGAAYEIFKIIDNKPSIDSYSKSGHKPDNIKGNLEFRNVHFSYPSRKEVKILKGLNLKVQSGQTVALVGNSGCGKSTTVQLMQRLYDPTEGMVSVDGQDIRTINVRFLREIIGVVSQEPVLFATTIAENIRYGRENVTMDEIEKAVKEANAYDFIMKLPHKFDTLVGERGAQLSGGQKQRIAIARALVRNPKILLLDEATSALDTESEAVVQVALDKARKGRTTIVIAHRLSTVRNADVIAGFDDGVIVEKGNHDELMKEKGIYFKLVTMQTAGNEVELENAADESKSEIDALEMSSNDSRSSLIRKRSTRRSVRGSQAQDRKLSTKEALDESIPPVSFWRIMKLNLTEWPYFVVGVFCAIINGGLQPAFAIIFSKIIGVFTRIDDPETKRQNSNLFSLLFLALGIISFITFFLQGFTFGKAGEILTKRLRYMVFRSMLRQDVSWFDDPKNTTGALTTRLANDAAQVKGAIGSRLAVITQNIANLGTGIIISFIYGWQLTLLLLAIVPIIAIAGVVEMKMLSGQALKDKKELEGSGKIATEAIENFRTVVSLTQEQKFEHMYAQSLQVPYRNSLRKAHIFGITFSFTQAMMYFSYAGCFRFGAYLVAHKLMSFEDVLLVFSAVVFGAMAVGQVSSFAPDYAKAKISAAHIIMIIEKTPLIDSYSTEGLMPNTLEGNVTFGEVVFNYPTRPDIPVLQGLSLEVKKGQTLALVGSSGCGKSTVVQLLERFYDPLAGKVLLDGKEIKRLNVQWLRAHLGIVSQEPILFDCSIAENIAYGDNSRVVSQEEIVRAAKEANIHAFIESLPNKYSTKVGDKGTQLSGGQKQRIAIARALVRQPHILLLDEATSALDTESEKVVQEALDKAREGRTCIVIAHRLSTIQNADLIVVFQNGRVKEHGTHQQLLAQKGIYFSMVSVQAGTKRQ

[1] = tested on: patients with mild-to-moderate Alzheimer's disease (AD); experiment: BOLD fMRI (task-free fMRI) clinical study, baseline vs end of treatment; format: in vivo, human
Protocol: The majority were non-Hispanic and of white origin.
T3D Therapeutics completed an exploratory analysis of the Phase 2A non-placebo-controlled feasibility study to assess the therapeutic effects of T3D959 in patients with mild-to-moderate Alzheimer's disease (AD) via task-free functional magnetic resonance imaging (tf-fMRI). A total of 34 subjects participated and were split into 4 groups that took different amounts of T3D959 over the course of the study: 3 mg, 10 mg, 30 mg, and 90 mg. A baseline tf-fMRI scan was obtained prior to treatment and another two weeks after. Sixteen tf-fMRI metrics were calculated at each time point and summarized for each patient group to assess the therapeutic effect of T3D959.
The T3D clinical trial investigated the following metrics: • 1. Goodness of Fit of the subject's default mode network regions compared to those of an elderly control group. • 2. The correlation strength between the hippocampus and precuneus. • 3. The global efficiency calculated from 11 pre-defined default mode network regions. • 4. The global efficiency calculated from 90 pre-defined cerebral regions based on the automated anatomical labeling atlas. • 5. The amplitude of low frequency fluctuations (ALFF) and […] of low frequency fluctuations (fALFF) from the right posterior cingulate cortex (PCC) and precuneus (PreC) in the low frequency oscillations (LFO) range (0.01-0.08 Hz). • 6. The ALFF and fALFF from the left PCC and PreC in the LFO range. • 7. The regional homogeneity (ReHo) in the right PCC and PreC. • 8. The ReHo in the left PCC and PreC. • 9. […] The ALFF and fALFF from the left IPL in the LFO range. • 11. The ReHo in the right IPL • 12. The ReHo in the left IPL.

Caco-2 = Caco-2 permeability with and without P-gp inhibitor verapamil; details: absence of a P-gp inhibitor
[2] = time point 1.0, individual rats
[3] = time point 3.0, individual rats
[4] = time point 5.0, individual rats
[5] = time point 7.0, individual rats
[6] = time point 12.0, individual rats

In the case of `CCc1oc(-c2ccc(OC)cc2)nc1CCOc1ccc2c(c1)CC[C@H]2CC(=O)[O-].[Na+]` [Example 11, Sodium (S)-2-(5-(2-(5-ethyl-2-(4-methoxyphenyl)oxazol-4-yl)ethoxy)-2,3-dihydro-1H-inden-1-yl)acetate], the “substrate for P-gp” value (P-glycoprotein (P-gp)) is reported as “not a substrate for P-gp”, the “ALFF-IIPL, Change from Baseline EOT, Mean” value ([1]; 3 mg) is reported as −0.0635 and the “ALFF-IIPL, Change from Baseline EOT, Median” value ([1]; 3 mg) is reported as −0.0393. For the same compound, the “ALFF-rIPL, Change from Baseline EOT, Mean” value ([1]; 3 mg) was −0.0493, the “ALFF-rIPL, Change from Baseline EOT, Median” value ([1]; 3 mg) was −0.0587 and the “ReHo-IIPL, Change from Baseline EOT, Mean” value (from here on “ReHo-IIPL, Change … Mean”) ([1]; 3 mg) was −0.0694. For the same compound, the “ReHo-IIPL, Change from Baseline EOT, Median” value (“ReHo-IIPL, Change … Median” for short) ([1]; 3 mg) was −0.0822, the “ReHo-IPPC-PreC, Change from Baseline EOT, Mean” value (shortened to “ReHo-IPPC-PreC, Change … Mean”) ([1]; 3 mg) was −0.0665 and the “ReHo-IPPC-PreC, Change from Baseline EOT, Median” value (shortened to “ReHo-IPPC-PreC, Change … Median”) ([1]; 3 mg) was −0.0428. For the same compound, the “ReHo-rIPL, Change from Baseline EOT, Mean” value (“ReHo-rIPL, Change … Mean” for short) ([1]; 3 mg) was −0.0694, the “ReHo-rIPL, Change from Baseline EOT, Median” value (“ReHo-rIPL, Change … Median” for short) ([1]; 3 mg) was −0.0822 and the “ReHo-rPPC-Prec, Change from Baseline EOT, Mean” value (shortened to “ReHo-rPPC-Prec, Change … Mean”) ([1]; 3 mg) was −0.0390. The “ReHo-rPPC-Prec, Change from Baseline EOT, Median” value (shortened to “ReHo-rPPC-Prec, Change … Median”) ([1]; 3 mg) was −0.0081, the “fALFF-IIPL, Change from Baseline EOT, Mean” value (“fALFF-IIPL, Change … Mean” for short) ([1]; 3 mg) was −0.0296 and the “fALFF-IIPL, Change from Baseline EOT, Median” value (from here on “fALFF-IIPL, Change … Median”) ([1]; 3 mg) was −0.0311. For the same compound, the “fALFF-IPPC-PreC, Change from Baseline EOT, Mean” value (“fALFF-IPPC-PreC, Change … Mean” below) ([1]; 3 mg) was 0.0121, the “fALFF-IPPC-PreC, Change from Baseline EOT, Median” value (from here on “fALFF-IPPC-PreC, Change … Median”) ([1]; 3 mg) was 0.0019 and the “fALFF-rIPL, Change from Baseline EOT, Mean” value (“fALFF-rIPL, Change … Mean” for short) ([1]; 3 mg) was −0.0342. The “fALFF-rIPL, Change from Baseline EOT, Median” value (from here on “fALFF-rIPL, Change … Median”) ([1]; 3 mg) was −0.0327, the “fALFF-rPPC-PreC, Change from Baseline EOT, Mean” value (“fALFF-rPPC-PreC, Change … Mean” below) ([1]; 3 mg) was −0.0080 and the “fALFF-rPPC-PreC, Change from Baseline EOT, Median” value (from here on “fALFF-rPPC-PreC, Change … Median”) ([1]; 3 mg) was −0.0229. The “ALFF-IIPL, Change from Baseline EOT, Mean” value ([1]; 10 mg) was 0.0104, the “ALFF-IIPL, Change from Baseline EOT, Median” value ([1]; 10 mg) was 0.0273 and the “ALFF-rIPL, Change from Baseline EOT, Mean” value ([1]; 10 mg) was −0.0276. The “ALFF-rIPL, Change from Baseline EOT, Median” value ([1]; 10 mg) was −0.0278, the “ReHo-IIPL, Change … Mean” value ([1]; 10 mg) was 0.0147 and the “ReHo-IIPL, Change … Median” value ([1]; 10 mg) was −0.0201. The “ReHo-IPPC-PreC, Change … Mean” value ([1]; 10 mg) was 0.0237, the “ReHo-IPPC-PreC, Change … Median” value ([1]; 10 mg) was 0.0523 and the “ReHo-rIPL, Change … Mean” value ([1]; 10 mg) was 0.0147. For the same compound, the “ReHo-rIPL, Change … Median” value ([1]; 10 mg) was −0.0201, the “ReHo-rPPC-Prec, Change … Mean” value ([1]; 10 mg) was −0.0663 and the “ReHo-rPPC-Prec, Change … Median” value ([1]; 10 mg) was 0.0153. For the same compound, the “fALFF-IIPL, Change … Mean” value ([1]; 10 mg) was 0.0164, the “fALFF-IIPL, Change … Median” value ([1]; 10 mg) was 0.0097 and the “fALFF-IPPC-PreC, Change … Mean” value ([1]; 10 mg) was 0.0068. For the same compound, the “fALFF-IPPC-PreC, Change … Median” value ([1]; 10 mg) was −0.0068, the “fALFF-rIPL, Change … Mean” value ([1]; 10 mg) was 0.0061 and the “fALFF-rIPL, Change … Median” value ([1]; 10 mg) was 0.0096. For the same compound, the “fALFF-rPPC-PreC, Change … Mean” value ([1]; 10 mg) was 0.0084, the “fALFF-rPPC-PreC, Change … Median” value ([1]; 10 mg) was −0.0028 and the “ALFF-IIPL, Change from Baseline EOT, Mean” value ([1]; 30 mg) was −0.0102. The “ALFF-IIPL, Change from Baseline EOT, Median” value ([1]; 30 mg) was −0.0031, the “ALFF-rIPL, Change from Baseline EOT, Mean” value ([1]; 30 mg) was 0.0346 and the “ALFF-rIPL, Change from Baseline EOT, Median” value ([1]; 30 mg) was 0.0332. The “ReHo-IIPL, Change … Mean” value ([1]; 30 mg) was −0.0249, the “ReHo-IIPL, Change … Median” value ([1]; 30 mg) was −0.0135 and the “ReHo-IPPC-PreC, Change … Mean” value ([1]; 30 mg) was −0.0369. The “ReHo-IPPC-PreC, Change … Median” value ([1]; 30 mg) was −0.0398, the “ReHo-rIPL, Change … Mean” value ([1]; 30 mg) was −0.0249 and the “ReHo-rIPL, Change … Median” value ([1]; 30 mg) was −0.0135. The “ReHo-rPPC-Prec, Change … Mean” value ([1]; 30 mg) was −0.0895, the “ReHo-rPPC-Prec, Change … Median” value ([1]; 30 mg) was −0.1176 and the “fALFF-IIPL, Change … Mean” value ([1]; 30 mg) was −0.0107. For the same compound, the “fALFF-IIPL, Change … Median” value ([1]; 30 mg) was −0.0034, the “fALFF-IPPC-PreC, Change … Mean” value ([1]; 30 mg) was −0.0132 and the “fALFF-IPPC-PreC, Change … Median” value ([1]; 30 mg) was −0.0141. The “fALFF-rIPL, Change … Mean” value ([1]; 30 mg) was 0.0023, the “fALFF-rIPL, Change … Median” value ([1]; 30 mg) was 0.0001 and the “fALFF-rPPC-PreC, Change … Mean” value ([1]; 30 mg) was −0.0007. The “fALFF-rPPC-PreC, Change … Median” value ([1]; 30 mg) was −0.0133, the “ALFF-IIPL, Change from Baseline EOT, Mean” value ([1]; 90 mg) was −0.0401 and the “ALFF-IIPL, Change from Baseline EOT, Median” value ([1]; 90 mg) was −0.0560. The “ALFF-rIPL, Change from Baseline EOT, Mean” value ([1]; 90 mg) was −0.1089, the “ALFF-rIPL, Change from Baseline EOT, Median” value ([1]; 90 mg) was −0.0671 and the “ReHo-IIPL, Change … Mean” value ([1]; 90 mg) was −0.0062. The “ReHo-IIPL, Change … Median” value ([1]; 90 mg) was −0.0121, the “ReHo-IPPC-PreC, Change … Mean” value ([1]; 90 mg) was 0.0194 and the “ReHo-IPPC-PreC, Change … Median” value ([1]; 90 mg) was 0.0566. For the same compound, the “ReHo-rIPL, Change … Mean” value ([1]; 90 mg) was −0.0062, the “ReHo-rIPL, Change … Median” value ([1]; 90 mg) was −0.0121 and the “ReHo-rPPC-Prec, Change … Mean” value ([1]; 90 mg) was −0.0041. For the same compound, the “ReHo-rPPC-Prec, Change … Median” value ([1]; 90 mg) was 0.0177, the “fALFF-IIPL, Change … Mean” value ([1]; 90 mg) was −0.0350 and the “fALFF-IIPL, Change … Median” value ([1]; 90 mg) was −0.0211. The “fALFF-IPPC-PreC, Change … Mean” value ([1]; 90 mg) was −0.0167, the “fALFF-IPPC-PreC, Change … Median” value ([1]; 90 mg) was −0.0166 and the “fALFF-rIPL, Change … Mean” value ([1]; 90 mg) was −0.0395. The “fALFF-rIPL, Change … Median” value ([1]; 90 mg) was −0.0313, the “fALFF-rPPC-PreC, Change … Mean” value ([1]; 90 mg) was −0.0118 and the “fALFF-rPPC-PreC, Change … Median” value ([1]; 90 mg) was 0.0039. For the same compound, the Papparent (Caco-2) was 114.4 ×10⁻⁶ cm/s, the “B/P Ratio” value [2] was 0.22 and 0.36 and 0.51 and the “Brain Tissue Cone.” value [2] was 226 ng/g and 161 ng/g and 101 ng/g. For the same compound, the “Average (B/P Ratio)” value (time point 1.0, three rats) was 0.361, the “B/P Ratio” value [3] was 0.26 and 0.21 and 0.19 and the “Brain Tissue Cone.” value [3] was 234 ng/g and 269 ng/g and 274 ng/g. For the same compound, the “Plasma Conc.” value [3] was 1270 ng/mL and 1430 ng/mL, the “Average (B/P Ratio)” value (time point 3.0, three rats) was 0.220 and the “B/P Ratio” value [4] was 0.17 and 0.18 and 0.16. For the same compound, the “Brain Tissue Cone.” value [4] was 208 ng/g and 247 ng/g and 333 ng/g, the “Plasma Conc.” value [4] was 1260 ng/mL and 1340 ng/mL and 2040 ng/mL and the “Average (B/P Ratio)” value (time point 5.0, three rats) was 0.171. The “B/P Ratio” value [5] was 0.16 and 0.35 and 0.47, the “Brain Tissue Cone.” value [5] was 203 ng/g and 216 ng/g and the “Average (B/P Ratio)” value (time point 7.0, three rats) was 0.328. The “B/P Ratio” value [6] was 0.30 and 0.44 and 0.31, the “Brain Tissue Cone.” value [6] was 104 ng/g and 114 ng/g and 117 ng/g and the “Plasma Conc.” value [6] was 345 ng/mL and 259 ng/mL and 377 ng/mL. For the same compound, the “Average (B/P Ratio)” value (time point 12.0, three rats) was 0.350.
